Patent publication US20140314857A1, “FORMULATIONS FOR ENHANCED BIOAVAILABILITY OF ZANAMIVIR” (priority 2012, published 2014)

Assay: Intravenous and intraduodenal (bolus) bioavailability of zanamivir from Capmul MCM L8 25, 50, 75 µL (Example 7)
Conditions: male, Sprague-Dawley, rat, in vivo; for concentration at 0.83 hr / concentration at 1 hr / concentration at 1.5 hr / concentration at 2 hr / concentration at 0.25 hr / concentration at 0.5 hr / concentration at 0.033 hr / concentration at 0.083 hr: 1.5 mg/animal, Plasma concentration; for clearance / half-life / Vd / Tmax: 1.5 mg; for clearance: CL; for half-life: T1/2, IV 1.5 mg/animal; for Vd: Vss
From the text: Male Sprague-Dawley rats (Hilltop Labs), 3 animals per treatment group, 250-350 grams in weight, were fitted with a jugular vein cannula (JVC). Animals intended for intraduodenal dosing were also fitted with one or more intraduodenal cannula (IDC) and those intended for intravenous dosing were fitted with a second JVC. Food was withheld from the animals for a minimum of twelve hours prior to test article administration and was returned approximately four hours post-dose. Water was supplied ad libitum.
Intraduodenal doses composed of 1.5 mg of zanamivir and varying amounts of an enhancer (glycerol or Capmul MCM L8) were injected directly into the duodenum via the IDC. Intravenous dosing was conducted by the injection of 1.5 mg of zanamivir in 200 μL of PBS through a JVC. For some experiments, the absorption enhancer was administered intraduodenally 2 hr prior to administering 1.5 mg of zanamivir in PBS through a second IDC. Each intraduodenal dose was followed with the introduction of a small air bubble (˜10 μL) in the cannula followed by a flush of 125 μL of PBS to ensure the dose was given in full. The volume of PBS used for cannula flush was consistent across the treatment groups. The cannula was tied to prevent the PBS remaining in the cannula from entering the duodenum.
Blood samples collected via the JVC, approximately 400 μL each, were obtained at 2 min, 5 min, 15 min, 30 min, 60 min, 90 min, and 120 min, with sodium heparin used as an anti-coagulant. Each sample was placed into a chilled tube containing the anticoagulant and kept on ice until centrifugation at 4° C., 3,000×g, for 5 min. The plasma supernatants were stored at −70° C. until LC-MS analysis.
Dosing solution samples were assayed by LC-MS/MS using electrospray ionization. The chromatographic system consisted of Perkin Elmer series 200 micropumps and autosampler equipped with a Waters Atlantic® HILIC Silica 3 μM, 2.1×50 mm column. The mass spectrometer was a PE Sciex API 4000 with electrospray interface in multiple reaction monitoring mode. […] Stock solutions (1 mg/mL zanamivir) were prepared in water. Standards (eight concentrations) were prepared in the appropriate matched matrix (HBSSg or Sprague-Dawley rat plasma containing sodium heparin) and diluted 50-fold with methanol. Experimental samples were treated identically.
Standards and samples were prepared in Sprague Dawley rat plasma containing sodium heparin as an anticoagulant. An eight-point calibration curve was prepared at concentrations of 1000, 750, 500, 250, 100, 50, 25, and 10 ng/mL by serial dilution. Standard samples were treated identically to the study samples.
Plasma samples were extracted by protein precipitation in methanol.
In this example, the bioavailability of Zanamivir was evaluated after intraduodenal doses in male Sprague-Dawley rats. The test compound was dosed at 1.5 mg/animal through intravenous and intraduodenal routes from normal saline and Capmul MCM L8 formulations, respectively. Plasma levels were determined by LC-MS/MS analysis. Pharmacokinetic parameters were estimated by a non-compartmental model using WinNonlin v5.2.1 software.
Each ID dose in groups 2-4 will be followed with a small air bubble ([…]) and a flush of […] of PBS to insure the dose is given in full. The volume of PBS used for cannulae flush will be maintained consistent across the animals and the treatment groups. The cannula will then be tied to help prevent the PBS remaining in the cannula from entering the duodenum.

[1] = ID bolus 1.5 mg/animal, 50 µL Capmul MCM L8, Ex.7, individual rats
[2] = ID bolus 1.5 mg/animal, 50 µL Capmul MCM L8, Ex.7, mean
[3] = intraduodenal bolus, 75 μL Capmul MCM L8, mean of 3 rats
[4] = intraduodenal bolus, 75 μL Capmul MCM L8, rat 963
[5] = intraduodenal bolus, 75 μL Capmul MCM L8, rat 964
[6] = intraduodenal bolus, 75 μL Capmul MCM L8, rat 965
[7] = iv, IV 1.5 mg/animal, Normal Saline, Ex.7, individual rats
[8] = iv, IV 1.5 mg/animal, Normal Saline, Ex.7, mean

CC(=O)NC1C(NC(=N)N)C=C(C(=O)O)OC1C(O)C(O)CO (stereo not drawn) [Zanamivir, 5-acetamido-4-guanidino-6-(1,2,3-trihydroxypropyl)-5,6-dihydro-4H-pyran-2-carboxylic acid]
concentration at 0.83 hr [1]: 2620 ng/mL
concentration at 0.83 hr [2]: 2120 ng/mL
concentration at 1 hr [1]: 695 ng/mL
concentration at 1 hr [2]: 651 ng/mL
concentration at 1.5 hr [1]: 216 ng/mL
concentration at 1.5 hr [2]: 244 ng/mL
concentration at 2 hr [1]: 103 ng/mL
concentration at 2 hr [2]: 120 ng/mL
concentration at 0.25 hr [3]: 2390 ng/mL
concentration at 0.25 hr [4]: 2560 ng/mL
concentration at 0.25 hr [5]: 1710 ng/mL
concentration at 0.25 hr [6]: 2890 ng/mL
concentration at 0.5 hr [3]: 1720 ng/mL
concentration at 0.5 hr [4]: 1820 ng/mL
concentration at 0.5 hr [5]: 1130 ng/mL
concentration at 0.5 hr [6]: 2200 ng/mL
concentration at 0.83 hr [3]: 2570 ng/mL
concentration at 0.83 hr [4]: 2940 ng/mL
concentration at 0.83 hr [5]: 1690 ng/mL
concentration at 0.83 hr [6]: 3070 ng/mL
concentration at 1 hr [3]: 828 ng/mL
concentration at 1 hr [4]: 748 ng/mL
concentration at 1 hr [5]: 807 ng/mL
concentration at 1 hr [6]: 929 ng/mL
concentration at 1.5 hr [3]: 349 ng/mL
concentration at 1.5 hr [4]: 403 ng/mL
concentration at 1.5 hr [5]: 273 ng/mL
concentration at 1.5 hr [6]: 372 ng/mL
concentration at 2 hr [3]: 154 ng/mL
concentration at 2 hr [4]: 180 ng/mL
concentration at 2 hr [5]: 121 ng/mL
concentration at 2 hr [6]: 160 ng/mL
clearance [7]: 10.5 mL/min/kg
clearance [8]: 10.2 mL/min/kg
half-life (iv, Normal Saline, Ex.7, individual rats): 24.1 min
half-life (iv, Normal Saline, Ex.7, mean): 23.8 ± 2.1 min
Vd [7]: 0.276 L/kg
Vd [8]: 0.271 ± 0.01 L/kg
Tmax [7]: 0 h
Tmax [8]: 0 h
concentration at 0.033 hr [7]: 20900 ng/mL
concentration at 0.033 hr [8]: 21400 ng/mL
concentration at 0.083 hr [7]: 11000 ng/mL
concentration at 0.083 hr [8]: 12300 ng/mL
concentration at 0.25 hr [7]: 11000 ng/mL
concentration at 0.25 hr [8]: 10700 ng/mL
concentration at 0.5 hr [7]: 6270 ng/mL
concentration at 0.5 hr [8]: 6070 ng/mL
concentration at 1 hr [7]: 1560 ng/mL
concentration at 1 hr [8]: 1760 ng/mL
concentration at 1.5 hr [7]: 741 ng/mL
concentration at 1.5 hr [8]: 755 ng/mL
concentration at 2 hr [7]: 278 ng/mL
concentration at 2 hr [8]: 310 ng/mL
